Consider four substances from patent EP1351977B1, “ANTIMICROBIAL PSEUDOPEPTIDES” (INSTITUT NATIONAL DE LA RECHERCHE AGRONOMIQUE (INRA), priority 2001, dated 2004).

Like-named read-outs stand apart in the source and are kept apart here. Ends that are not written are not given here.

Holding throughout (format): cell-based
In one assay the test system is Escherichia coli CIP548. Kind of assay: Bacterial growth inhibition test in Petri dish (solid medium), MIC. Conditions: MIC extrapolated from inhibition diameter vs log10 concentration.
For a further assay, the system named is Serratia entomophila. Described as above. As to conditions: MIC extrapolated from inhibition diameter vs log10 concentration.
In assay [1] the test system is Proteus vulgaris CIP58.60. The assay is described as above. As to conditions: MIC extrapolated from inhibition diameter vs log10 concentration.
The next assay concerns Klebsiella pneumoniae. The assay is described as above. Conditions: MIC extrapolated from inhibition diameter vs log10 concentration.
In another assay the test system is Salmonella sp. The assay is described as above. As to conditions: MIC extrapolated from inhibition diameter vs log10 concentration. On the procedure:
Deux tests ont été utilisés pour mesurer l'activité antibactérienne des pseudopeptides, un test d'inhibition de la croissance bactérienne en microplaques (de 96 puits) en milieu liquide et un test d'inhibition de la croissance bactérienne en boîte de Pétri en milieu solide. • * Test en microplaques: La culture bactérienne à tester est prélevée en phase exponentielle, puis diluée au 1/500^ème dans du milieu liquide TSB frais. Chaque puits de la microplaque est rempli avec 100 µl de suspension bactérienne diluée. Dans le premier puits, 100 µl de l'échantillon de pseudopeptide à tester est ajouté à la suspension bactérienne, puis l'échantillon est dilué de 2 en 2 en transférant d'un puits à l'autre 100 µl de suspension. La lecture de la microplaque se fait en mesurant la densité optique à […] (DO600nm) après 24h d'incubation à 28°C ou 37°C selon les bactéries cibles. Connaissant la concentration en pseudopeptide de l'échantillon de départ, ce test permet de déterminer la valeur de la CMI (Concentration Minimale d'Inhibition de la croissance bactérienne). Dans ce test, la CMI correspond à la concentration de l'échantillon pour lequel la DO600nm est inférieure à celle du témoin de culture. • * Test en boîte de Pétri: La culture bactérienne à tester est prélevée en phase exponentielle, puis incorporée à 10 ml d'une gélose dite "sous-couche" (Agarose 1% poids/vol; NaCl 100 mM; Trypcase 0.03 % poids/vol; Tampon phosphate 10 mM pH7.4) à raison de 2.10^5 bactéries/ml. Le mélange est coulé dans une boîte de Pétri ordinaire. 9 puits d'environ 10 µl de volume sont formés dans la "sous-couche" à l'aide d'un embout de pipette stérile de 10 ml. Ces puits sont remplis avec une série de dilutions des pseudopeptides à tester (concentration initiale 500 µg/ml, et dilution de deux en deux jusqu'à 1,95 µg/ml). Après diffusion à température ambiante pendant 2h, une gélose dite "sur-couche" (Agarose 1% wt/vol; Trypcase 6 % wt/vol; Tampon phosphate 10 mM pH7.4) est ajoutée sur la sous-couche à raison de 5 à 10 ml. Après solidification, l'ensemble est mis à incuber pendant une nuit. Le diamètre d'inhibition de la culture bactérienne autour de chaque puits est mesuré en mm; il existe une relation linéaire entre le diamètre d'inhibition et le log10 de la concentration en pseudopeptide qui permet de déterminer par extrapolation la valeur de la CMI.
Une première série de résultats a été obtenue en utilisant le test en boîte de Pétri vis-à-vis de bactéries non pathogènes issues de la collection de Travaux pratiques du laboratoire de Pathologie Comparée de l'Université de Montpellier (France). Dans cette série, les pseudopeptides des pics 5, 7, 8,10 et 11 ont été testés (Tableau 4).

Another assay deals with Staphylococcus aureus. The description is as above. As to conditions: MIC extrapolated from inhibition diameter vs log10 concentration.
The next assay deals with Bacillus megaterium. The assay is described as above. As to conditions: MIC extrapolated from inhibition diameter vs log10 concentration.
The subject of another assay is Pseudomonas fluorescens. The assay is described as above. As to conditions: MIC extrapolated from inhibition diameter vs log10 concentration.
The next assay relates to Septoria tritici sp. Kind of assay: Antifungal growth inhibition test in liquid medium.
The next assay relates to Fusarium culmorum sp. Put plainly: Antifungal growth inhibition test in liquid medium. An excerpt:
(§1) Les composés des pics 5, 7 et 8 de la figure 1 ont été testées vis-à-vis d'un ensemble de champignons phytopathogènes. Trois doses (10, 20, et 40 ppm) ont été employées pour chacun des composés.
(§2) L'activité antifongique a été détectée par un test d'inhibition de croissance en milieu liquide. Les spores des champignons à tester ont été mises en suspension dans un milieu de culture de type "Pomme de terre-Glucose". De préférence, on utilise 12 g de milieu Potato Dextrose Broth (Difco) pour 1 litre d'eau déminéralisée. Deux antibiotiques ont été rajoutés au milieu de culture: la tétracycline (concentration finale de 10 µg/ml) et la céfotaxime (100 µg/ml). On dépose 10 µl de chaque composé à tester dans des plaques de microtitration en présence de 90 µl de milieu de culture contenant les spores (à une concentration finale de 10^4 spores/ml). L'incubation a été réalisée en chambre humide à 30°C durant 48 heures. La croissance fongique a été observée au microscope photonique après 24 h et quantifiée après 48 heures par mesure de l'absorbance à 600 nm à l'aide d'un spectrophotomètre lecteur de plaque de microtitration. L'activité des composés contre les champignons phytopathogènes est exprimée par un pourcentage d'inhibition de croissance correspondant à 100 x (1 - absorbance avec produit/ absorbance du témoin sans produit), l'absorbance étant mesurée à 600 nm, 5 jours après le début de l'expérience.

A further assay relates to Phytophthora myc. Put plainly: Antifungal growth inhibition test in liquid medium.
From the text: as §1, §2

The test system of the next assay is Botrytis cinerea sp. Put plainly: Antifungal growth inhibition test in liquid medium.
Another assay has as its system Cladosporium sp. Kind of assay: Antifungal growth inhibition test in liquid medium.
A further assay relates to Alternaria brassicae. Kind of assay: Antifungal growth inhibition test in liquid medium.
The subject of the next assay is Rhizoctonia solani myc. Kind of assay: Antifungal growth inhibition test in liquid medium.
The next assay deals with Piricularia oryzae sp.
For the next assay, the system named is Cladosporium myc. Put plainly: Antifungal growth inhibition test in liquid medium.
For assay [2], the system named is Helminthosporium teres sp. Kind of assay: Antifungal growth inhibition test in liquid medium.
A further assay has as its system Botrytis cinerea myc. Put plainly: Antifungal growth inhibition test in liquid medium.
For assay [3], the system named is Staphylococcus epidermidis. Kind of assay: Bacterial growth inhibition test in Petri dish (solid medium), MIC. Conditions: MIC extrapolated from inhibition diameter vs log10 concentration.

On to “Composé 11: pseudopeptide du pic n° 11 de Xenorhabdus nematophilus F1; Famille 1: Lys Lys Lys Lys Lys Gly; 1080 Da; isomère de masse du pic 7 (KKKKKG; also: pseudopeptide modifications, not given here)”, for which the CMI in the assay on Escherichia coli CIP548 is 15 µg/mL; in the assay on Serratia entomophila, 30 µg/mL; in assay [1], 200 µg/mL; with Klebsiella pneumoniae it was 30 µg/mL; in the assay on Salmonella sp. it was 15 µg/mL; in the assay on Staphylococcus aureus it was 7,5 µg/ml. For the same substance, the CMI in the assay on Bacillus megaterium was 0,75 µg/ml; with Pseudomonas fluorescens, 1,5 µg/ml.
Take “Composé 7: pseudopeptide du pic n° 7 de Xenorhabdus nematophilus F1; Famille 2: Lys Lys Lys Lys Arg Gly; 1080 Da; isomère de masse du pic 11 (KKKKRG; also: pseudopeptide modifications)”: the “pourcentage d'inhibition de croissance” value came to 0% in the assay on Septoria tritici sp (10 ppm); 86% in the assay on Septoria tritici sp (20 ppm); 89% in the assay with Septoria tritici sp (40 ppm); 66% in the assay on Fusarium culmorum sp (10 ppm); 97% with Fusarium culmorum sp (20 ppm); 97% in the assay with Fusarium culmorum sp (40 ppm). The “pourcentage d'inhibition de croissance” value with Phytophthora myc (10 ppm) was 71%; with Phytophthora myc (20 ppm), 81%; with Phytophthora myc (40 ppm), 78%; in the assay on Botrytis cinerea sp (10 ppm), 53%; in the assay with Botrytis cinerea sp (20 ppm), 12%; in the assay with Botrytis cinerea sp (40 ppm) it was 83%. Also, the “pourcentage d'inhibition de croissance” value in the assay with Cladosporium sp (10 ppm) turned out to be 74%; with Cladosporium sp (20 ppm) it was 95%; with Cladosporium sp (40 ppm), 95%; in the assay on Alternaria brassicae (10 ppm), 25%; in the assay with Alternaria brassicae (20 ppm) it was 47%; with Alternaria brassicae (40 ppm), 83%. Further, the “pourcentage d'inhibition de croissance” value with Rhizoctonia solani myc (10 ppm) was found to be 6%; in the assay on Rhizoctonia solani myc (20 ppm), 7%; in the assay with Rhizoctonia solani myc (40 ppm), 64%; with Piricularia oryzae sp (10 ppm) it was 12%; in the assay on Piricularia oryzae sp (20 ppm), 15%; in the assay with Piricularia oryzae sp (40 ppm) it was 21%. Besides, the “pourcentage d'inhibition de croissance” value with Cladosporium myc (10 ppm) is 0%; in the assay on Cladosporium myc (20 ppm), 40%; with Cladosporium myc (40 ppm), 91%; in assay [2] (10 ppm), 33%; in assay [2] (20 ppm), 47%; in assay [2] (40 ppm), 80%. In addition, the “pourcentage d'inhibition de croissance” value in the assay on Botrytis cinerea myc (10 ppm) came to 0%; in the assay with Botrytis cinerea myc (20 ppm) it was 6%; in the assay with Botrytis cinerea myc (40 ppm), 34%. The CMI with Escherichia coli CIP548 is 15 µg/mL; in the assay on Serratia entomophila, 60 µg/mL; in [1], 100 µg/mL; in the assay with Klebsiella pneumoniae it was 30 µg/mL; in the assay with Salmonella sp., 15 µg/mL; with Staphylococcus aureus, 15 µg/mL. Besides, the CMI in the assay on Bacillus megaterium and with Pseudomonas fluorescens was 1,5 µg/ml throughout.
In the case of Polymixine [reference compound], the CMI in the assay with Escherichia coli CIP548 was 0,25 µg/ml; in assay [1] it was 50 µg/mL; in the assay with Salmonella sp., 0,5 µg/ml; in the assay on Staphylococcus aureus, 20 µg/mL; in assay [3], 20 µg/mL.
On to “Composé 10: pseudopeptide du pic n° 10 de Xenorhabdus nematophilus F1; Famille 2: Lys Lys Lys Lys Arg Gly; 1094 Da; structure en Figure 3 (KKKKRG; also: pseudopeptide modifications, not given here)”, for which the CMI was 7,5 µg/ml in the assay with Escherichia coli CIP548; 15 µg/mL with Serratia entomophila; 200 µg/mL in assay [1]; 15 µg/mL with Klebsiella pneumoniae; 30 µg/mL in the assay with Salmonella sp.; 7,5 µg/ml in the assay on Staphylococcus aureus. Besides, the CMI in the assay on Bacillus megaterium is recorded as 0,75 µg/ml; in the assay on Pseudomonas fluorescens it was 1,5 µg/ml.
